Measurements from ChEMBL document CHEMBL3045065, “Synthesis and analgesic effects of 2-(2-carboxyphenylsulfanyl)-N-(4-substitutedphenyl)acetamide derivatives” (Med Chem Res, 2011).

What was measured:
Mus musculus [1] = assay: Neurotoxicity in Mus musculus Swiss albino (mouse) assessed as falling latency at 100 mg/kg, ip by Rota-Rod test; assay type: toxicity, organism-based; set-up: dose 100 mg/kg, route intraperitoneal; details: in vivo
Mus musculus [2] = assay: Toxicity in Mus musculus Swiss albino (mouse) assessed as mortality at 100 mg/kg, ip; assay type: organism-based; set-up: dose 100 mg/kg, route intraperitoneal; details: in vivo
Mus musculus [3] = assay: Neurotoxicity in Mus musculus Swiss albino (mouse) assessed as effect on vertical locomotory activity at 100 mg/kg, ip; assay type: toxicity, organism-based; set-up: dose 100 mg/kg, route intraperitoneal; details: in vivo
Mus musculus [4] = assay: Neurotoxicity in Mus musculus Swiss albino (mouse) assessed as effect on horizontal locomotory activity at 100 mg/kg, ip; assay type: toxicity, organism-based; set-up: dose 100 mg/kg, route intraperitoneal; details: in vivo
Mus musculus [5] = assay: Analgesic activity in Mus musculus Swiss albino (mouse) assessed as inhibition of acetic acid-induced writhing at 100 mg/kg, ip measured after 30 min relative to control; assay type: functional; details: 0.5 h, route intraperitoneal
Mus musculus [6] = assay: Analgesic activity in Mus musculus Swiss albino (mouse) at 100 mg/kg, ip measured after 30 min by tail clip test; assay type: functional; details: route intraperitoneal
Mus musculus [7] = assay: Analgesic activity in Mus musculus Swiss albino (mouse) assessed as paw licking and jumping latency at 100 mg/kg, ip measured after 30 min by hot plate test; assay type: functional; details: route intraperitoneal

SMILES	Activity (Mus musculus [1])	Activity (Mus musculus [2])	Activity (Mus musculus [3])	Activity (Mus musculus [4])	inhibition in vivo at 100 mg/kg (Mus musculus [5])	MPE (Mus musculus [6])	Activity (Mus musculus [7])
O=C(CSc1ccccc1C(=O)O)Nc1ccccc1	Non-toxic	Non-toxic	Non-toxic	Non-toxic	54.8%	52.1%	79.98%
O=C(CSc1ccccc1C(=O)O)Nc1ccc(Cl)cc1	Non-toxic	Non-toxic	Non-toxic	Non-toxic	49.7%	43.94%	65.73%
O=C(O)c1ccccc1S [THIOSALICYLIC ACID]	Non-toxic	Non-toxic	Non-toxic	Non-toxic	33.9%	40.37%	62.49%
Cc1ccc(NC(=O)CSc2ccccc2C(=O)O)cc1	Non-toxic	Non-toxic	Non-toxic	Non-toxic	76.3%	72.31%	89.37%
CC(=O)Nc1ccc(O)cc1 [ACETAMINOPHEN]	Non-toxic	Non-toxic	Non-toxic	Non-toxic	29.4%		51.61%
O=C(CSc1ccccc1C(=O)O)Nc1ccc(Br)cc1	Non-toxic	Non-toxic	Non-toxic	Non-toxic	9.04%	13.71%	8.48%
COc1ccc(NC(=O)CSc2ccccc2C(=O)O)cc1	Non-toxic	Non-toxic	Non-toxic	Non-toxic	27.7%	25.01%	35.12%
O=C(CSc1ccccc1C(=O)O)Nc1ccc(C(=O)O)cc1	Non-toxic	Non-toxic	Non-toxic	Non-toxic	20.3%	17.05%	18.07%
